Counter-ions that a name gives are not always drawn.
Tests used:
CYP2D6 = biological target: T1, CYP2D6 (Homo sapiens, UniProt P10635); assay: Cytochrome P450 inhibition assay (P450-Glo) CYP2D6; format: in vitro ADME; conditions: compounds 10 μM; miltefosine 10 μM or 1 μM
T1 construct: purchased Corning Inc; host or cells: baculovirus-infected insect cells
Source text: (§1) Cytochrome (CYP) P450 inhibition assay: These assays made use of microsomal preparations of CYP450 (1A2, 2C9, 2C19, 2D6 and 3A4) from baculovirus-infected insect cells (Corning Inc., Corning, NY, USA) and cytochrome c reductase (and cytochrome b5 for CYP450 3A4). For detection of CYP450 activity, the luminescence-based P450-Glo (Promega Corp., Madison, WI, USA) assay system was used that contained a luminogenic CYP450 substrate, lyophilized luciferin detection reagent and reconstitution buffer. The substrates were luciferin derivatives of CYP450-specific substrates that produce (4S)-4,5-dihydro-2-(6-hydroxybenzothiazolyl)-4-thiazolecarboxylic acid (D-luciferin) after cleavage by CYP450 (CYP450 3A4, luciferin-IPA; CYP450 2C19, luciferin-H EGE; CYP450 2C9, luciferin-H; CYP450 2D6, luciferin-ME EGE; CYP450 1A2, luciferin-1A2). CYP450 reactions were initiated by addition of the NADPH regeneration system to the enzyme–substrate mixture with the luciferin detection reagent stopping the reaction and the D-luciferin being converted to oxyluciferin under the production of light being proportional to the CYP450 activity. The CYP450 assays were performed using the Tecan Fluent liquid-handling automation platform (Tecan Group Ltd., Mannedorf, Switzerland) in the 384-well assay format. Compounds were added into an empty 384-well plate (100 nL/well in 1% v/v DMSO) using the Echo 550 Liquid Handler followed by the addition of 5 μL/well of the CYP450/substrate mixture and incubation for 30 min at 37 °C, after which the reaction was initiated by the addition of the 5 μL/well NADPH regeneration system. After a further 30-min incubation at 37 °C, the CYP450 reaction was stopped and the luciferase reaction was simultaneously initiated by addition of 10 μL/well of luciferin detection reagent, followed by an additional 30-min incubation at 37 °C. The luminescence signal was detected using an Infinite M1000 PRO plate reader (Tecan Group Ltd., Mannedorf, Switzerland). The NCs yielded 0% inhibition (1% v/v DMSO) and standard CYP450 specific inhibitors were used as positive controls, yielding 100% inhibition (CYP450 1A2, alpha-naphthoflavone; CYP450 2C9, sulfaphenazole; CYP450 2C19, troglitazone; CYP450 2D6, quinidine; CYP450 3A4, ketoconazole).
(§2) Data analysis: The screening data were obtained in triplicate and analysed using ActivityBase (IDBS, Guildford, UK), and outlier elimination in the control wells was performed using the 3-sigma method. Unless stated, dose–response experiments were performed in the 11-point format with the IC50 value, Hill slope, minimum signal and maximum signal for each dose–response curve obtained using a four-parameter logistic fit in the XE module of ActivityBase (IDBS).

CYP3A4 = biological target: T2, CYP3A4 (Homo sapiens, UniProt P08684); assay: Cytochrome P450 inhibition assay (P450-Glo) CYP3A4; format: in vitro ADME; conditions: compounds 10 μM; miltefosine 10 μM or 1 μM
T2 construct: purchased Corning Inc; host or cells: baculovirus-infected insect cells
T2 sequence (P08684 2-503 limits assumed): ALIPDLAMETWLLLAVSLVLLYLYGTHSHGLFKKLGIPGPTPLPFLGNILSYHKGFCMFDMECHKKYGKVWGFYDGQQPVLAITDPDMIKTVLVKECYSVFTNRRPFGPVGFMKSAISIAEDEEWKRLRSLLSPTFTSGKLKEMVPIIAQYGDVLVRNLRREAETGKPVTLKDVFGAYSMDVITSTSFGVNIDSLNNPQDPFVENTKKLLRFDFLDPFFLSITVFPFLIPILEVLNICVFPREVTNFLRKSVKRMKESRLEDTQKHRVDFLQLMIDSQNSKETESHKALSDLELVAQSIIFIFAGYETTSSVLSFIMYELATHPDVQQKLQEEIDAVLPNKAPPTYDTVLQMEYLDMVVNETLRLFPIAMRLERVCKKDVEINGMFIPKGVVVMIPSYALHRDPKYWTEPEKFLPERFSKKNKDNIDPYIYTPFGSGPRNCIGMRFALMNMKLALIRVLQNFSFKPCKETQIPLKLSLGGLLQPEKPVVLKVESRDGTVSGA
Source text: as §1, §2

CYP2C9 = biological target: T3, CYP2C9 (Homo sapiens, UniProt P11712); assay: Cytochrome P450 inhibition assay (P450-Glo) CYP2C9; format: in vitro ADME; conditions: compounds 10 μM; miltefosine 10 μM or 1 μM
T3 construct: purchased Corning Inc; host or cells: baculovirus-infected insect cells
T3 sequence (P11712 whole entry): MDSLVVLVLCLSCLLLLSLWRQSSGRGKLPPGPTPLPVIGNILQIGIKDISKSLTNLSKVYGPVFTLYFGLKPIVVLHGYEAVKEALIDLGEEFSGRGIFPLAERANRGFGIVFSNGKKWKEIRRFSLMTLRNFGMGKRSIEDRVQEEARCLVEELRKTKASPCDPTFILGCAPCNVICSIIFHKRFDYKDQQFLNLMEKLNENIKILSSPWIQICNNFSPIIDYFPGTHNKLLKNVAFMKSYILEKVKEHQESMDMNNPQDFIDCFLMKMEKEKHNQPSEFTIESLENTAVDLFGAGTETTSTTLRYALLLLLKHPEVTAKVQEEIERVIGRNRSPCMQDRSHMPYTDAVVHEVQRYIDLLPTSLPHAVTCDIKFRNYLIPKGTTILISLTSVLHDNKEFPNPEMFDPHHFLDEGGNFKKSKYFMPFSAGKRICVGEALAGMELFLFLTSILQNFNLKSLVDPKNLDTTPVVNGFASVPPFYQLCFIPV
Source text: as §1, §2

[1] = Early ADMET profiling panel, overall; conditions: 10 μM; except for toxicity against THP1 macrophages
Source text: Early ADMET profiling: The early ADMET profiling of the new derivatives involved a group of assays widely used in drug development as part of the preclinical in vitro toxicity studies. In particular our panel included hERG inhibition, five cytochromes P450 (CYP1A2, CYP2C9, CYP2C19, CYP2D6 and CYP3A4), two cell-lines (A549, epithelial human lung adenocarcinoma, WI38 and foetal lung fibroblasts), Aurora B kinase and mitochondrial toxicity, in addition to the parasite relevant toxicity against THP1 macrophages. The compounds were tested at 10 μΜ, whilst the miltefosine control was tested at 10 μΜ or 1 μM. The toxicity of the new click phospholipids is depicted in Figure 3 in a traffic light format (from red through yellow to green for decreasing ADMET liabilities).
Cytotoxicity assay: A549 cells and WI-38 cells were grown on surface-modified T175 cell culture flasks in Dulbecco’s modified Eagle medium with 10% foetal calf serum (FCS), streptomycin (100 μg/mL) and 100 U/mL penicillin G. At about 80% confluency, cells were washed, trypsinized, resuspended and counted in RPMI-1640 medium before seeding (in triplicate) into white 384-well microtiter plates (20 μL) at 500 cells/well and incubated at 37 °C in the presence of 5% CO2 for 24 h. A total of 20 μL/well of CellTiter-Glo (CTG) reagent (Promega Corp., Madison, WI, USA) was added to each well, and plates were read using an EnVision Multilabel 2103 Reader after a 10-min incubation in the dark. Dose–response assays for compounds made use of 11-point curves. Each test compound (200 nL of 10 mM top concentration in 100% v/v DMSO) was added to cells seeded in polystyrene 384-well cell culture microtiter plates using the Echo 550 Liquid Handler and read after 24 h of incubation at 37 °C in the presence of 5% CO2 using CTG as described above. The compounds/positive control (paclitaxel with final concentration of 10 μM and 1% v/v DMSO) and no compound (final 1% v/v DMSO) were added into the 384-well plates (200 nL/well; 1% v/v DMSO) using the Echo 550 Liquid Handler. The raw luminescence signal of each sample was converted into the percentage of cell growth.
as §1, with “After a further 30-min incubation at 37 °C, the CYP450 reaction was stopped and the luciferase reaction was simultaneously initiated by addition of 10 μL/well of luciferin detection reagent, followed by an additional 30-min incubation at 37 °C. The luminescence signal was detected using an Infinite M1000 PRO plate reader (Tecan Group Ltd., Mannedorf, Switzerland). The NCs yielded 0% inhibition (1% v/v DMSO) and standard CYP450 specific inhibitors were used as positive controls, yielding 100% inhibition (CYP450 1A2, alpha-naphthoflavone; CYP450 2C9, sulfaphenazole; CYP450 2C19, troglitazone; CYP450 2D6, quinidine; CYP450 3A4, ketoconazole).” left out

T1 sequence (P10635 whole entry): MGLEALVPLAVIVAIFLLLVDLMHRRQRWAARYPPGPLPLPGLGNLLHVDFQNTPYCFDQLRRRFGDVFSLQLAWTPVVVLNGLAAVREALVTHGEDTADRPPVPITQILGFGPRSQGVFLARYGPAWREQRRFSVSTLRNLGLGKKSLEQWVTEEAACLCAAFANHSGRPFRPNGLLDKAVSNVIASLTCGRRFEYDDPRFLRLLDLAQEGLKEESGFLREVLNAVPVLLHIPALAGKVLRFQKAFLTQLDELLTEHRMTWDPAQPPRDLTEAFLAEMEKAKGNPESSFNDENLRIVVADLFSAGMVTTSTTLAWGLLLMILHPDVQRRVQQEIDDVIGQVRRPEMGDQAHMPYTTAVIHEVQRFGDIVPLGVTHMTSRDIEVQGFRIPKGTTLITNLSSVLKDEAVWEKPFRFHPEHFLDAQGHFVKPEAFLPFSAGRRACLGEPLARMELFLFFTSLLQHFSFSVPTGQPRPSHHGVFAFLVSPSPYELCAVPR

SMILES | % inhibition ± SD at 10 μΜ CYP2D6 (CYP2D6) | % inhibition ± SD at 10 μΜ CYP3A4 (CYP3A4) | % inhibition ± SD at 10 μΜ CYP2C9 (CYP2C9) | ADMET liabilities (overall panel) [1]
C[N+](C)(C)CCOP(=O)([O-])OCCCCCCCCCCCn1cc(CCCCCCCCC(=O)O)nn1 [Compound 34, 11-(4-(8-carboxyoctyl)-1H-1,2,3-triazol-1-yl)undecyl (2-(trimethylammonio)ethyl) phosphate inner salt] | 23.08% | 19.27% | 18.94% | no liabilities
CCCCCCCCCCCCCCCCOP(=O)([O-])OCC[N+](C)(C)C [Miltefosine, hexadecylphosphocholine, reference compound] | 30.83% | 8.39% | –0.80% | 
C[N+](C)(C)CCCOP(=O)([O-])OCCCCCCCCCCCn1cc(CC2CCCCC2)nn1 [Compound 33, 11-(4-(cyclohexylmethyl)-1H-1,2,3-triazol-1-yl)undecyl (3-(trimethylammonio)propyl) phosphate inner salt] | 9.87±6.48% | 7.61 ± 9.09% | 19.72% | no liabilities
C[N+](C)(C)CCOP(=O)([O-])OCCCCCCCCCCCn1cc(CC2CCCCC2)nn1 [Compound 29, 11-(4-(cyclohexylmethyl)-1H-1,2,3-triazol-1-yl)undecyl (2-(trimethylammonio)ethyl) phosphate inner salt] | –46.97% | –33.59% | –22.63% | no liabilities
C[N+](C)(C)CCOP(=O)([O-])OCCCCCn1cc(CCCCCCCCNC(=O)OCc2ccccc2)nn1 [Compound 31, 5-(4-(8-(((benzyloxy)carbonyl)amino)octyl)-1H-1,2,3-triazol-1-yl)pentyl (2-(trimethylammonio)ethyl) phosphate inner salt] | 11.06% | –7.33% | 8.95% | no liabilities
CCCCCCCCc1noc(CCCCCCCCCCOP(=O)([O-])OCC[N+](C)(C)C)n1 [Compound 54, 10-(3-octyl-1,2,4-oxadiazol-5-yl)decyl (2-(trimethylammonio)ethyl) phosphate inner salt] | 6.07% | 13.88% |  | 
C[N+](C)(C)CCOP(=O)([O-])OCCCCCn1cc(CCCCCCCCN)nn1 [Compound 35, 5-(4-(8-aminooctyl)-1H-1,2,3-triazol-1-yl)pentyl (2-(trimethylammonio)ethyl) phosphate inner salt] | 7.26% | –8.64% | 2.57% | no liabilities
CCCCCCCc1nnc(CCCCCCCCCCOP(=O)([O-])OCC[N+](C)(C)C)o1 [Compound 65, 10-(5-heptyl-1,3,4-oxadiazol-2-yl)decyl (2-(trimethylammonio)ethyl) phosphate inner salt] | –30.44% | –2.44% | 28.32% | no liabilities
CCCCCCCCc1noc(CCCCCOP(=O)([O-])OCC[N+](C)(C)C)n1 [Compound 53, 5-(3-octyl-1,2,4-oxadiazol-5-yl)pentyl (2-(trimethylammonio)ethyl) phosphate inner salt] | –26.41% | –12.40% | 5.45% | no liabilities
CCCCCc1cn(CCCCCCCCCCCOP(=O)([O-])OCC[N+](C)(C)C)nn1 [Compound 25, 11-(4-pentyl-1H-1,2,3-triazol-1-yl)undecyl (2-(trimethylammonio)ethyl) phosphate inner salt] | –37.71% | –20.13% | –23.11% | no liabilities
C[N+](C)(C)CCOP(=O)([O-])OCCCCCCCCCCCn1cc(CC2CCCC2)nn1 [Compound 28, 11-(4-(cyclopentylmethyl)-1H-1,2,3-triazol-1-yl)undecyl (2-(trimethylammo nio)ethyl) phosphate inner salt] | –56.57% | –33.70% | –23.46% | no liabilities

— PMC8305768, “Design, Synthesis and Antiparasitic Evaluation of Click Phospholipids” (Molecules, 2021)
